Results on six compounds are retold here after ChEMBL document CHEMBL1145279, “Discovery and development of dimeric podocarpic acid leads as potent agonists of liver X receptor with HDL cholesterol raising activity in mice and hamsters” (Bioorg Med Chem Lett, 2005).

Experiment [1] concerns the target T1, Oxysterols receptor LXR-alpha (Homo sapiens, UniProt Q13133).
T1 sequence (Q13133 whole entry): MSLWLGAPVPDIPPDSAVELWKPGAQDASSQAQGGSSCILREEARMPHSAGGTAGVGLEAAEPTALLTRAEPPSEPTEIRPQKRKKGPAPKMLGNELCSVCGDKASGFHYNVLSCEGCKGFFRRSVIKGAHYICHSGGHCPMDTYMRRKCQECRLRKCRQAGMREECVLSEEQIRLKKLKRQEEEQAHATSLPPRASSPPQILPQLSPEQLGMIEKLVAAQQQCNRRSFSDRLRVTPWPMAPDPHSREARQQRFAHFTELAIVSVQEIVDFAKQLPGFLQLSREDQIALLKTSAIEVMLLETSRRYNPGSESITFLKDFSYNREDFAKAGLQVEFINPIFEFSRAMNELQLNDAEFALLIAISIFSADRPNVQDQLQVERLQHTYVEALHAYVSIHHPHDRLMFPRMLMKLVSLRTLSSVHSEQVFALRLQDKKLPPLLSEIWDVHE
Put plainly: Displacement of [3H2]-F3-methyl AA (1) from liver X receptor-alpha in SPA assay.

Experiment [2] has as its target T2, Oxysterols receptor LXR-beta (Homo sapiens, UniProt P55055).
T2 sequence (P55055 whole entry): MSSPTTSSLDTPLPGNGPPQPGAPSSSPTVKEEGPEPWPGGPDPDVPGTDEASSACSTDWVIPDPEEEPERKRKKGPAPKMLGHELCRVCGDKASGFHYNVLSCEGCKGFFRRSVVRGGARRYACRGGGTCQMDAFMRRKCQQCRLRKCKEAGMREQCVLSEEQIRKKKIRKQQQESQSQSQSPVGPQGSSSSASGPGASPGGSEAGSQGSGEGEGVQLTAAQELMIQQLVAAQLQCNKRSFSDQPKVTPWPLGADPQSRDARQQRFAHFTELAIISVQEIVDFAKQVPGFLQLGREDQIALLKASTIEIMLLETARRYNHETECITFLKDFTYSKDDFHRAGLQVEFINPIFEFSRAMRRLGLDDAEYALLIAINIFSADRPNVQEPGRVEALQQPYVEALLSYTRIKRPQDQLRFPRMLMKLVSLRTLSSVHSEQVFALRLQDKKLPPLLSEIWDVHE
Put plainly: Effective concentration for cofactor association with recombinant liver X receptor-beta.

Experiment [3] concerns the target T1, Oxysterols receptor LXR-alpha. Put plainly: Effective concentration for cofactor association with recombinant liver X receptor-alpha.
The target in experiment [4] is T2, Oxysterols receptor LXR-beta. Put plainly: Displacement of [3H2]-F3-methyl AA (1) from liver X receptor-beta in SPA assay.
For experiment [5] the target is unchanged. Put plainly: Effective concentration against liver X receptor-beta in HEK293 cell transactivation assay. It counts as cell-based.
In experiment [6] the target is T1, Oxysterols receptor LXR-alpha. Put plainly: Effective concentration against liver X receptor-alpha in HEK293 cell transactivation assay. It counts as cell-based.
Experiment [7] deals with T3, Oxysterols receptor LXR-beta (Homo sapiens) (UniProt P55055).
T3 sequence (whole entry): T2 sequence (P55055 whole entry)
Put plainly: Percent inhibition of [3H2]-F3-methyl AA (1) binding to liver X receptor-beta at 100 uM.

Experiment [8] concerns the target T4, Oxysterols receptor LXR-alpha (Homo sapiens) (UniProt Q13133).
T4 sequence (whole entry): T1 sequence (Q13133 whole entry)
Put plainly: Percent inhibition of [3H2]-F3-methyl AA (1) binding to liver X receptor-alpha at 100 uM.

For experiment [9], the target named is T2, Oxysterols receptor LXR-beta. Put plainly: Displacement of [3H2]-F3-methyl AA (1) from liver X receptor-beta in SPA assay; Not active.
The target of experiment [10] is T1, Oxysterols receptor LXR-alpha. Put plainly: Displacement of [3H2]-F3-methyl AA (1) from liver X receptor-alpha in SPA assay; Not active.
Experiment [11] concerns the target T2, Oxysterols receptor LXR-beta. Put plainly: Effective concentration for cofactor association with recombinant liver X receptor-beta; Not active.
For experiment [12], the target named is T1, Oxysterols receptor LXR-alpha. Put plainly: Effective concentration for cofactor association with recombinant liver X receptor-alpha; Not active.

Molecules are shown by their SMILES. pEC50, pIC50: −log10 of the molar value. Where only a bound is given, the exact number is not on record here.

As usually defined, the pIC50 is the IC50 on a negative log10 scale, so that one unit is a factor of ten. A high value points to a small IC50. One may read the pEC50 as the EC50 on a negative log10 scale, so that one unit is a factor of ten. As to `CC(=O)Oc1ccc2c(c1)[C@@]1(C)CCCC(C)(C(=O)OC(=O)[C@@]3(C)CCC[C@]4(C)c5cc(OC(C)=O)ccc5CC[C@@H]34)[C@@H]1CC2` (stereo partly specified), the pIC50 in experiment [1] and in experiment [4] was 8.70 in each case. For the same compound, the pEC50 was 8.70 in [2], 8.70 in experiment [3], 8.00 in experiment [5] and 8.00 in experiment [6].
As a reminder, the inhibition is the percentage by which the read-out fell short of the control. Read a low inhibition as little suppression. `CC(C)CC[C@@H](O)[C@@H](C)[C@H]1CC[C@H]2[C@@H]3CC=C4C[C@@H](O)CC[C@]4(C)[C@H]3CC[C@]12C` [22(R)-HYDROXYCHOLESTEROL]: the pEC50 in experiment [2] and in experiment [3] was 4.82 each time. Also, the inhibition in experiment [7] was 60%; in [8], 70%.
For `C[C@]1(C(=O)O)CCC[C@]2(C)c3cc(O)ccc3CC[C@@H]12` [PODOCARIC ACID], the pIC50 in experiment [1] and in [4] was less than 4.30 throughout. For the same compound, the pEC50 in experiment [2] and in experiment [3] was less than 4.30 in each case.
In the case of `CCCc1c(OCCCSc2ccc(CC(=O)O)cc2Cl)ccc2c(C(F)(F)F)noc12`, in experiment [1], the pIC50 was 7.45. Moreover, the pEC50 in experiment [3] was 7.45; in [6], 5.75; in experiment [6] (hek293) it was 5.75.
For the compound `C[C@]1(C(=O)O)CCC[C@]2(C)c3cc(OP(=O)(O)Oc4ccc5c(c4)[C@@]4(C)CCC[C@](C)(C(=O)O)[C@@H]4CC5)ccc3CC[C@@H]12`, the IC50 entry in [9] and in experiment [10] was “Not Active” each time. Also, the EC50 result in experiment [11] and in experiment [12] was “Not Active” each time.
Turning to `CC1OC(Oc2cc3c(cc2-c2cc4c(cc2O)[C@@]2(C)CCC[C@](C)(C(=O)O)[C@@H]2CC4)CC[C@H]2[C@@](C)(C(=O)O)CCC[C@]32C)C(O)C(O)C1O` (stereo partly specified), the IC50 entry in [9] and in experiment [10] was “Not Active” throughout. Further, the EC50 result in [11] and in experiment [12] was “Not Active” in each case.
